{
  "source": "paper PMC10562414",
  "about": "“GLP-1R signaling neighborhoods associate with the susceptibility to adverse drug reactions of incretin mimetics” (Nature Communications, 2023)",
  "key": {"[1]": {"test_system": "GLP-1R-expressing HEK293 cells (phosphoproteome)", "experiment": "Phosphoproteomics, GLP-1R-transfected cells, 30 min (experiment 2)", "type": "cell-based, human", "conditions": "GLP transfection, 1 μM", "procedure": "(§1) P values were calculated by a two-sided unpaired t-test.\n(§2) HEK293 cells (350,000 cells/mL) were transfected in suspension using 3 μg of linear PEI (MW 25,000) per 1 μg of plasmid DNA and seeded onto poly-D-lysine-coated 60 mm dishes at a density of 1,750,000 cells per dish. After a 24-h incubation, cells were washed twice with PBS and placed in starvation media (DMEM with penicillin/streptomycin). After a 48-h incubation, cells were washed twice with HBSS and maintained in the same buffer. […] Cell extracts were prepared as previously described[64]–[66]. In short, 200 μL of the lysis buffer preheated at 95 °C (4% sodium dodecyl sulfate in 50 mM Tris adjusted to pH 8.5) was added to the cells. The samples were then denatured at 95 °C for 10 min, placed on ice and then sonicated using a probe sonicator (3 sec on, 3 sec off pulse, 1 min, 30% amplitude) (Branson). Lysate protein concentration was determined using the Pierce bicinchoninic acid assay kit (Thermo Fisher Scientific) according to the manufacturer’s instructions. The lysates were reduced using 5 mM dithiothreitol for 1 h at room temperature and alkylated using 15 mM iodoacetamide for 1 h at room temperature in the dark. Proteins were precipitated and digested on beads using MagReSyn Amine magnetic beads (ReSyn Biosciences) according to the manufacturer’s instructions. Protein digestion was conducted overnight at 37 °C with lysyl endopeptidase (LysC, Wako) (1:150 LysC/protein, w/w) and trypsin (1:300 trypsin/protein, w/w). 20% TFA, 2 M glycolic acid in 80% ACN were added to the samples at a 1:1 ratio for phosphopeptide enrichment using MagReSyn TiO2 magnetic beads (ReSyn Biosciences) according to the manufacturer’s instructions. The enriched phosphopeptides were dried overnight in a SpeedVac, resuspended into 5% formic acid (FA), desalted using StageTip (Thermo Fisher Scientific) according to the manufacturer’s instructions and dried in a SpeedVac. The experiment was performed in biological triplicates.\n(§3) All parameters and settings regarding the acquisition of the proteomics data can be found in Supplementary Data 11, 12. For data acquisition, the instrument was set to peptide mode, with a trapping pressure set as low (2mTorr). An EASY-Spray Source (Thermo Fisher Scientific) was used and the column temperature was maintained with the integrated, temperature-controlled heater at 55 °C throughout the experiment. For the data presented in Fig. 5d, the column was heated at 50 °C following the manufacturer’s instructions (IonOpticks).\nAcquired raw files were converted to mzML format by MSConvert (version 3.0.21258)[67] applying peak picking of the mass spectra with the vendor-provided algorithm (Thermo Fisher Scientific). The mzML files were analyzed using the FragPipe GUI v18 for both library and DIA search. […] Trypsin with up to 2 missed cleavages was set as digestion enzyme, oxidation of methionine, acetylation of the N-terminus and phosphorylation on serine, threonine and tyrosine (maximal occurrence was set to three) were set as variable modifications. Carbamidomethylation of cysteine residues was set as a fixed modification. Peptide length was restricted to 7 to 50 amino acids, and 500 to 5000 Da. […] DIA files were analyzed by DIA-NN 1.8.1[71], [72] using the previously generated library and monitor-command mode. Peptide quantification was performed based on the fragment elution profiles from the MS2 level (area under the curve). […]"}, "[2]": {"test_system": "GLP-1R-expressing HEK293 cells + Dyngo-4A (phosphoproteome)", "experiment": "Phosphoproteomics, GLP-1R-transfected cells with internalization inhibitor Dyngo-4A, 30 min", "type": "cell-based, human", "conditions": "1 μM, 30 min, vs vehicle, n = 3", "procedure": "as §1, §2, §3\nAcquired raw files were converted to mzML format by MSConvert (version 3.0.21258)[67] applying peak picking of the mass spectra with the vendor-provided algorithm (Thermo Fisher Scientific). The mzML files were analyzed using the FragPipe GUI v18 for both library and DIA search. […] Trypsin with up to 2 missed cleavages was set as digestion enzyme, oxidation of methionine, acetylation of the N-terminus and phosphorylation on serine, threonine and tyrosine (maximal occurrence was set to three) were set as variable modifications. Carbamidomethylation of cysteine residues was set as a fixed modification. Peptide length was restricted to 7 to 50 amino acids, and 500 to 5000 Da. The precursor tolerance was set to ±20 ppm, fragment mass tolerance to 20 ppm and MSBooster was enabled. The resulting peptide-spectrum matches were adjusted to a 1% false discovery rate with Percolator[69] as part of the Philosopher toolkit (v4.4)[70] and converted to a spectra library. DIA files were analyzed by DIA-NN 1.8.1[71], [72] using the previously generated library and monitor-command mode. Peptide quantification was performed based on the fragment elution profiles from the MS2 level (area under the curve).\nAll further data processing was performed in R (version 4.2.1). Only phosphopeptides with a localization score of at least 0.75 were considered for further analysis. […]"}, "GLP-1R [3]": {"target": "T1, GLP-1R (Homo sapiens, UniProt P43220)", "T1 sequence (P43220 24-463)": "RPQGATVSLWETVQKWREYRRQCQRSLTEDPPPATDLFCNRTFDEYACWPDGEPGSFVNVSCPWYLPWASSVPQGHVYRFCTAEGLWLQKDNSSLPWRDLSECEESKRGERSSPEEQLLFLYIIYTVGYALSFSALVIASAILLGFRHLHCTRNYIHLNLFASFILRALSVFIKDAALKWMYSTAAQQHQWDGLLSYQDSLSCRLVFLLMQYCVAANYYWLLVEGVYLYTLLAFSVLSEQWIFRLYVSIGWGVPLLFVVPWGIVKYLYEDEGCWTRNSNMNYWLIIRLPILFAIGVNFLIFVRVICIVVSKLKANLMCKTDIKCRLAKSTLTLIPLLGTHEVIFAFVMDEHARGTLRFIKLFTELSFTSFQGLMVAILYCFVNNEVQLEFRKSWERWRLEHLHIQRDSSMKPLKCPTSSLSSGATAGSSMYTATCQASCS", "experiment": "Inverted Gini coefficients for pathway selectivity (efficacy, potency) per compartment", "method": "Inverted Gini coefficients depict differences in drug-induced pathway selectivity for efficacy and potency. Inverted Gini coefficients were calculated to compare the similarities among the 15 tested pathways (Gs, Gq, G11 , G14, G15, G12, G13, Gi1, Gi2, Gi3, GoA, GoB, Gz, GRK/Gb g and bARR) for efficacy (a) and potency (b) across the four compartments included in this study (PM, EE, GA, ER) where 1 represents equality and 0 represents dissimilarity."}, "GLP-1R [4]": {"target": "T1, GLP-1R", "experiment": "ebBRET pathway activation (15 transducers), normalized efficacy and potency, Supplementary Fig. 11 (cellular compartment not given)", "type": "cell-based"}},
  "data": [
    {"smiles": "N#Cc1ccc(COc2cccc(C3CCN(Cc4nc5ccc(C(=O)O)cc5n4C[C@@H]4CCO4)CC3)n2)c(F)c1", "note": "[Danuglipron]", "values": [
      {"measurement": "log2.foldchange, PABPN1 S19", "setting": "[1]; vs time-matched vehicle, p […], n = 3", "value": 1.128},
      {"measurement": "log2.foldchange, VPS51 S13", "setting": "[1]; vs vehicle, p 0.15884, n = 3", "value": -0.5399},
      {"measurement": "log2.foldchange, EIF3J S20", "setting": "[1]; vs vehicle, p 0.656982, n = 3", "value": -0.08041},
      {"measurement": "log2.foldchange, EIF3J S11", "setting": "[1]; vs vehicle, p 0.693473, n = 3", "value": -0.5463},
      {"measurement": "log2.foldchange, VPS51 S18", "setting": "[1]; vs vehicle, p 0.842243, n = 3", "value": 0.02396},
      {"measurement": "log2.foldchange, PABPN1 S19", "setting": "[2]; Dyngo internalization inhibitor (50 μM, 30 min pre), p 0.975742", "value": 0.005523},
      {"measurement": "log2.foldchange, EIF3J S13", "setting": "[2]; Dyngo internalization inhibitor, p 0.0121456 (passed all criteria)", "value": 2},
      {"measurement": "log2.foldchange, EIF3J S11;S13", "setting": "[2]; Dyngo internalization inhibitor, p 0.107013", "value": 0.1859},
      {"measurement": "log2.foldchange, VPS51 S18", "setting": "[2]; Dyngo internalization inhibitor, p 0.460124", "value": -0.1867},
      {"measurement": "log2.foldchange, POLE4 S9;T11", "setting": "[2]; Dyngo internalization inhibitor, p 0.765877", "value": -0.2937},
      {"measurement": "1 - Gini", "setting": "GLP-1R [3]; Early endosomes, Supplementary Fig. 18a", "value": 0.2929},
      {"measurement": "1 - Gini", "setting": "GLP-1R [3]; Early endosomes, Supplementary Fig. 18b", "value": 0.7742},
      {"measurement": "1 - Gini", "setting": "GLP-1R [3]; Endoplasmic reticulum, Supplementary Fig. 18a", "value": 0.09},
      {"measurement": "1 - Gini", "setting": "GLP-1R [3]; Endoplasmic reticulum, Supplementary Fig. 18b", "value": 0.8902},
      {"measurement": "1 - Gini", "setting": "GLP-1R [3]; Golgi apparatus, Supplementary Fig. 18a", "value": 0.1115},
      {"measurement": "1 - Gini", "setting": "GLP-1R [3]; Golgi apparatus, Supplementary Fig. 18b", "value": 0.854},
      {"measurement": "1 - Gini", "setting": "GLP-1R [3]; Plasma membrane, Supplementary Fig. 18a", "value": 0.403},
      {"measurement": "1 - Gini", "setting": "GLP-1R [3]; Plasma membrane, Supplementary Fig. 18b", "value": 0.7941},
      {"measurement": "Efficacy (normalized), GRK2/Gβγ", "setting": "GLP-1R [4]; Supplementary Fig. 11a, GRK2/Gβγ", "value": 0.507},
      {"measurement": "Efficacy (normalized), Gα11", "setting": "GLP-1R [4]; Supplementary Fig. 11a, Gα11", "value": 0},
      {"measurement": "Efficacy (normalized), Gα12", "setting": "GLP-1R [4]; Supplementary Fig. 11a, Gα12", "value": 0},
      {"measurement": "Efficacy (normalized), Gα13", "setting": "GLP-1R [4]; Supplementary Fig. 11a, Gα13", "value": 0},
      {"measurement": "Efficacy (normalized), Gα14", "setting": "GLP-1R [4]; Supplementary Fig. 11a, Gα14", "value": 0.9516},
      {"measurement": "Efficacy (normalized), Gα15", "setting": "GLP-1R [4]; Supplementary Fig. 11a, Gα15", "value": 0},
      {"measurement": "Efficacy (normalized), Gαi1", "setting": "GLP-1R [4]; Supplementary Fig. 11a, Gαi1", "value": 0},
      {"measurement": "Efficacy (normalized), Gαi2", "setting": "GLP-1R [4]; Supplementary Fig. 11a, Gαi2", "value": 0},
      {"measurement": "Efficacy (normalized), Gαi3", "setting": "GLP-1R [4]; Supplementary Fig. 11a, Gαi3", "value": 0},
      {"measurement": "Efficacy (normalized), GαoA", "setting": "GLP-1R [4]; Supplementary Fig. 11a, GαoA", "value": 0.4649},
      {"measurement": "Efficacy (normalized), GαoB", "setting": "GLP-1R [4]; Supplementary Fig. 11a, GαoB", "value": 0.7256},
      {"measurement": "Efficacy (normalized), Gαq", "setting": "GLP-1R [4]; Supplementary Fig. 11a, Gαq", "value": 0},
      {"measurement": "Efficacy (normalized), Gαs", "setting": "GLP-1R [4]; Supplementary Fig. 11a, Gαs", "value": 0},
      {"measurement": "Efficacy (normalized), Gαz", "setting": "GLP-1R [4]; Supplementary Fig. 11a, Gαz", "value": 0.5189},
      {"measurement": "Efficacy (normalized), βARR2", "setting": "GLP-1R [4]; Supplementary Fig. 11a, βARR2", "value": 0.458},
      {"measurement": "Potency (logEC50), Gα11", "setting": "GLP-1R [4]; Supplementary Fig. 11b, Gα11", "value": 0},
      {"measurement": "Potency (logEC50), Gα12", "setting": "GLP-1R [4]; Supplementary Fig. 11b, Gα12", "value": 0},
      {"measurement": "Potency (logEC50), Gα13", "setting": "GLP-1R [4]; Supplementary Fig. 11b, Gα13", "value": 0},
      {"measurement": "Potency (logEC50), Gα14", "setting": "GLP-1R [4]; Supplementary Fig. 11b, Gα14", "value": 0.7414},
      {"measurement": "Potency (logEC50), Gα15", "setting": "GLP-1R [4]; Supplementary Fig. 11b, Gα15", "value": 0},
      {"measurement": "Potency (logEC50), Gαi1", "setting": "GLP-1R [4]; Supplementary Fig. 11b, Gαi1", "value": 0},
      {"measurement": "Potency (logEC50), Gαi2", "setting": "GLP-1R [4]; Supplementary Fig. 11b, Gαi2", "value": 0},
      {"measurement": "Potency (logEC50), Gαi3", "setting": "GLP-1R [4]; Supplementary Fig. 11b, Gαi3", "value": 0},
      {"measurement": "Potency (logEC50), GαoA", "setting": "GLP-1R [4]; Supplementary Fig. 11b, GαoA", "value": 0.573},
      {"measurement": "Potency (logEC50), GαoB", "setting": "GLP-1R [4]; Supplementary Fig. 11b, GαoB", "value": 0.2577},
      {"measurement": "Potency (logEC50), Gαq", "setting": "GLP-1R [4]; Supplementary Fig. 11b, Gαq", "value": 0},
      {"measurement": "Potency (logEC50), Gαs", "setting": "GLP-1R [4]; Supplementary Fig. 11b, Gαs", "value": 0},
      {"measurement": "Potency (logEC50), Gαz", "setting": "GLP-1R [4]; Supplementary Fig. 11b, Gαz", "value": 0.2291},
      {"measurement": "Potency (logEC50), βARR2", "setting": "GLP-1R [4]; Supplementary Fig. 11b, βARR2", "value": 0.384}
    ]}
  ]
}
